Assay results as given in the supplement of paper PMC4862054.
Where “and” joins values, the source holds several entries; their conditions need not be identical. Equal values may be shown once.

Legend:
Conditions in all cases: incubation time: 72 h
MDA-MB-436 [1] = assay: normalised response (% of control), CellTiter-Glo; higher = more viable cells (100 = DMSO, 0 = benzethonium chloride kill control)
How it was run: (§1)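 A 20 µl suspension of breast cancer cells was seeded into each well of 384-well plates containing compound at 5 concentrations in 10-fold steps over a compound-specific 10,000-fold range. After 72 h incubation, CellTox Green fluorescence (485/520 nm) was read first, and CellTiter-Glo luminescence was read after 10 min at room temperature. Each plate was normalised against 0.1 % DMSO (100) and a positive kill control (0), and each value is the normalised signal at one concentration.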

CAL-148 [2] = assay: as above
How it was run: as §1

SK-BR-3 [3] = assay: as above
How it was run: as §1

MDA-MB-453 [4] = assay: as above
How it was run: as §1

HDQ-P1 [5] = assay: as above
How it was run: as §1

CAL-51 [6] = assay: as above
How it was run: as §1

MFM-223 [7] = assay: as above
How it was run: as §1

CAL-85-1 [8] = assay: as above
How it was run: as §1

HCC1599 [9] = assay: as above
How it was run: as §1

HCC1143 [10] = assay: as above
How it was run: as §1

BT-549 [11] = assay: as above
How it was run: as §1

CAL-120 [12] = assay: as above
How it was run: as §1

HCC1937 [13] = assay: as above
How it was run: as §1

MCF-10A = assay: as above
How it was run: as §1

Hs578T [14] = assay: as above
How it was run: as §1

BT-474 [15] = assay: as above
How it was run: as §1

DU-4475 [16] = assay: as above
How it was run: as §1

MDA-MB-231 [17] = assay: as above
How it was run: as §1

MDA-MB-468 [18] = assay: as above
How it was run: as §1

MDA-MB-436 [19] = assay: normalised viability (% of control), CellTiter-Blue; higher = more viable cells (100 = DMSO, 0 = benzethonium chloride kill control)
Procedure: (§2)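 DSRT, CellTiter-Blue viability, 72 h incubation. Signal is normalised to DMSO and benzethonium chloride controls. Value is the normalised response at dose 1.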

CAL-148 [20] = assay: as above
Procedure: as §2

SK-BR-3 [21] = assay: as above
Procedure: as §2

MDA-MB-453 [22] = assay: as above
Procedure: as §2

CAL-51 [23] = assay: as above
Procedure: as §2

MFM-223 [24] = assay: as above
Procedure: as §2

CAL-85-1 [25] = assay: as above
Procedure: as §2

HCC1599 [26] = assay: as above
Procedure: as §2

HCC1143 [27] = assay: as above
Procedure: as §2

BT-549 [28] = assay: as above
Procedure: as §2

CAL-120 [29] = assay: as above
Procedure: as §2

HCC1937 [30] = assay: as above
Procedure: as §2

Hs578T [31] = assay: as above
Procedure: as §2

BT-474 [32] = assay: as above
Procedure: as §2

DU-4475 [33] = assay: as above
Procedure: as §2

MDA-MB-231 [34] = assay: as above
Procedure: as §2

MDA-MB-468 [35] = assay: as above
Procedure: as §2

CAL-148 [36] = assay: normalised viability (% of control), CellTiter-Blue; higher = more viable cells (about 100 = DMSO control)
Procedure: (§3)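 DSRT, CellTiter-Blue viability, 72 h incubation. Signal is normalised to DMSO and benzethonium chloride controls. Value is the normalised response at dose 9.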

MDA-MB-453 [37] = assay: as above
Procedure: as §3

HDQ-P1 [38] = assay: as above
Procedure: as §3

CAL-51 [39] = assay: as above
Procedure: as §3

CAL-85-1 [40] = assay: as above
Procedure: as §3

DU-4475 [41] = assay: as above
Procedure: as §3

## CS(=O)(=O)CCNCc1ccc(-c2ccc3ncnc(Nc4ccc(OCc5cccc(F)c5)c(Cl)c4)c3c2)o1 [Lapatinib] (1 nM)
MDA-MB-436 [1]
  normalised response: 99.3%
CAL-148 [2]
  normalised response: 110%
SK-BR-3 [3]
  normalised response: 116%
MDA-MB-453 [4]
  normalised response: 108%
HDQ-P1 [5]
  normalised response: 95.7%
CAL-51 [6]
  normalised response: 77.7%
MFM-223 [7]
  normalised response: 107%
CAL-85-1 [8]
  normalised response: 93.4%
HCC1599 [9]
  normalised response: 90.2%
HCC1143 [10]
  normalised response: 105%
BT-549 [11]
  normalised response: 95.4%
CAL-120 [12]
  normalised response: 100%
HCC1937 [13]
  normalised response: 100%
MCF-10A
  normalised response: 99.3%
Hs578T [14]
  normalised response: 104%
BT-474 [15]
  normalised response: 105%
DU-4475 [16]
  normalised response: 107%
MDA-MB-231 [17]
  normalised response: 99.5%
MDA-MB-468 [18]
  normalised response: 106%
MDA-MB-436 [19]
  normalised viability: 104% and 115%
CAL-148 [20]
  normalised viability: 97.7% and 107%
SK-BR-3 [21]
  normalised viability: 92.7% and 105%
MDA-MB-453 [22]
  normalised viability: 99.8% and 92.5%
CAL-51 [23]
  normalised viability: 116% and 104%
MFM-223 [24]
  normalised viability: 96.7% and 95.1%
CAL-85-1 [25]
  normalised viability: 90.3% and 86.8%
HCC1599 [26]
  normalised viability: 114% and 97.8%
HCC1143 [27]
  normalised viability: 87% and 88%
BT-549 [28]
  normalised viability: 88.8% and 94.3%
CAL-120 [29]
  normalised viability: 83.3% and 87.2%
HCC1937 [30]
  normalised viability: 99.3% and 105%
Hs578T [31]
  normalised viability: 100% and 124%
BT-474 [32]
  normalised viability: 85.4% and 94.8%
DU-4475 [33]
  normalised viability: 96.4% and 93.1%
MDA-MB-231 [34]
  normalised viability: 86.6% and 96.8%
MDA-MB-468 [35]
  normalised viability: 108% and 114%

## COC(=O)C[C@](O)(CCCC(C)(C)O)C(=O)O[C@@H]1C(OC)=C[C@]23CCCN2CCc2cc4c(cc2[C@H]13)OCO4 [Omacetaxine mepesuccinate] (10000 nM)
CAL-148 [36]
  normalised viability: 5.68%
MDA-MB-453 [37]
  normalised viability: 2.46%
HDQ-P1 [38]
  normalised viability: 15.2%
CAL-51 [39]
  normalised viability: 3.97%
CAL-85-1 [40]
  normalised viability: 2.22%
DU-4475 [41]
  normalised viability: 1.55%

## COc1cc(Nc2ncc(F)c(Nc3ccc4c(n3)NC(=O)C(C)(C)O4)n2)cc(OC)c1OC [R406] (10000 nM)
CAL-148 [36]
  normalised viability: 99.8%
MDA-MB-453 [37]
  normalised viability: 110%
HDQ-P1 [38]
  normalised viability: 108%
CAL-51 [39]
  normalised viability: 97.8%
CAL-85-1 [40]
  normalised viability: 94.6%
DU-4475 [41]
  normalised viability: 102%

## c1ccc(C2CN3CCSC3=N2)cc1 (centres undefined) [Tetramisole] (10000 nM)
CAL-148 [36]
  normalised viability: 117%
MDA-MB-453 [37]
  normalised viability: 99.5%
HDQ-P1 [38]
  normalised viability: 116%
CAL-51 [39]
  normalised viability: 89.3%
CAL-85-1 [40]
  normalised viability: 98.1%
DU-4475 [41]
  normalised viability: 101%
